Source: publication PMC9571063 (Molecules, 2022)
Where a name gives a salt, the structure may show the parent alone. Read-outs that look alike come from different tables or passages of the source.

Experiments:
[1] = molecular target: T1, HsDYRK1A (Homo sapiens, UniProt Q13627); assay: ADP-Glo kinase assay; type: biochemical; settings: for remaining activity at 1 µM / remaining activity at 10 µM: n=2, read-out: % of residual activity Hs_DYRK1A
T1 construct: host or cells: Sf9 insect cells (baculovirus)

[2] = molecular target: T2, MmCLK1 (Mus musculus, UniProt P22518); assay: ADP-Glo kinase assay; type: biochemical; settings: for remaining activity at 1 µM / remaining activity at 10 µM: n=2, read-out: % of residual activity Mm_CLK1
T2 construct: host or cells: bacteria

[3] = molecular target: T3, Hs_CDK5/p25 (Homo sapiens, UniProt Q00535); assay: ADP-Glo kinase assay, primary screen; type: biochemical; settings: n=2, read-out: % of residual activity Hs_CDK5/p25
T3 construct: host or cells: bacteria

[4] = molecular target: T4, Hs_CDK9/CyclinT (Homo sapiens, UniProt P50750); assay: ADP-Glo kinase assay, primary screen; type: biochemical; settings: n=2, read-out: % of residual activity Hs_CDK9/CyclinT
T4 construct: host or cells: Sf9 insect cells (baculovirus)

[5] = molecular target: T5, Hs_PIM1 (Homo sapiens, UniProt P11309); assay: ADP-Glo kinase assay, primary screen; type: biochemical; settings: n=2, read-out: % of residual activity Hs_PIM1
T5 construct: host or cells: Sf9 insect cells (baculovirus)

[6] = molecular target: T6, Rn_DYRK1A (Rattus norvegicus, UniProt Q63470); assay: ADP-Glo kinase assay, primary screen; type: biochemical; settings: n=2, read-out: % of residual activity Rn_DYRK1A
T6 construct: host or cells: bacteria

[7] = molecular target: T7, Hs_HASPIN (Homo sapiens, UniProt Q8TF76); assay: ADP-Glo kinase assay, primary screen; type: biochemical; settings: n=2, read-out: % of residual activity Hs_HASPIN
T7 construct: host or cells: bacteria
T7 sequence (Q8TF76 1-798): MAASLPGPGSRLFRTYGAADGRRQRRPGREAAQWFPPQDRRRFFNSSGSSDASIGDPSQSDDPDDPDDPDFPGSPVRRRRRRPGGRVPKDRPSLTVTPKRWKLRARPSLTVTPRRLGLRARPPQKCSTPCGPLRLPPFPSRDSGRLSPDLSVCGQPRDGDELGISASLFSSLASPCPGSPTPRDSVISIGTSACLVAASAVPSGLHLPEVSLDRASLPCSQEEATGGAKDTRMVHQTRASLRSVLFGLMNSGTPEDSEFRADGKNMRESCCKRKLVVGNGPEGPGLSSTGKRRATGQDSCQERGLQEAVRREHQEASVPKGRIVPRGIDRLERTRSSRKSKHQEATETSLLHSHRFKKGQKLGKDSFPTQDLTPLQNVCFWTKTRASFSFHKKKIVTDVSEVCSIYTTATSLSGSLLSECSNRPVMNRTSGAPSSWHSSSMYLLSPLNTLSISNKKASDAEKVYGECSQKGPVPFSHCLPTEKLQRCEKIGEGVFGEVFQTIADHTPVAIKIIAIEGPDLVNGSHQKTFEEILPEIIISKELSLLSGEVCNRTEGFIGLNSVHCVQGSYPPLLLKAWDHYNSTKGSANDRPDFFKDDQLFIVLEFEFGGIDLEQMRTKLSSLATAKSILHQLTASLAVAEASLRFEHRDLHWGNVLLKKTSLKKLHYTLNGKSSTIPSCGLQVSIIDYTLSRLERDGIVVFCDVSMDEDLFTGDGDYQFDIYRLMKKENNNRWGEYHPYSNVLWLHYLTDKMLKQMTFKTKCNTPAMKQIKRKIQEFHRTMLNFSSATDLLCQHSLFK

[8] = molecular target: T8, Hs_GSK3β (Homo sapiens, UniProt P49841); assay: ADP-Glo kinase assay, primary screen; type: biochemical; settings: n=2, read-out: % of residual activity Hs_GSK3β
T8 construct: host or cells: Sf9 insect cells (baculovirus)

[9] = molecular target: T9, Hs_CK1ε (Homo sapiens, UniProt P49674); assay: ADP-Glo kinase assay, primary screen; type: biochemical; settings: n=2, read-out: % of residual activity Hs_CK1ε
T9 construct: host or cells: Sf9 insect cells (baculovirus)

[10] = cytotoxic assay, nuclei count (Hoechst, HCS); type: cell-based; settings: human, HuH7 cells (hepatocellular carcinoma); 48 h treatment; read-out: Cytotoxic studies IC50 HuH7
[11] = cytotoxic assay, nuclei count (Hoechst, HCS); type: cell-based; settings: human, Caco-2 cells (colorectal adenocarcinoma); 48 h treatment; read-out: Cytotoxic studies IC50 Caco2
[12] = cytotoxic assay, nuclei count (Hoechst, HCS); type: cell-based; settings: human, MDA-MB-231 cells (breast carcinoma); 48 h treatment; read-out: Cytotoxic studies IC50 MDA-MB-231
[13] = cytotoxic assay, nuclei count (Hoechst, HCS); type: cell-based; settings: human, 48 h treatment
Procedure: (§1) To complete our study, we performed a cytotoxicity screening of the 15 molecules, investigating 7 representative cancer cell lines. The compound’s effect on cell viability was evaluated on Huh-7 (hepatocellular carcinoma), CaCo2, HCT-116 (colorectal adenocarcinoma), MCF7, MDA-MB231, MDA-MB468 (breast carcinoma), PC3 (prostate carcinoma) and NCI-H727 (lung carcinoid). Human skin fibroblasts were used as reference for non-cancerous cells. Roscovitine, Doxorubicin and Taxol were used as positive controls. The cells were treated for 48 h with 25 µM compounds and fixed in cooled 90% ethanol/5% acetic acid for 20 min. The nuclei were stained with Hoechst 33342 and counted using HCS technology.
(§2) HuH7, CaCo-2, MDA-MB-231, HCT116, PC3, MCF7 and NCI-H727 cancer cell lines were obtained from the ECACC collection (Porton Down, UK). Cells were grown at 37 °C, 5% CO2 in ECACC recommended media: DMEM for HuH7, MDA-MB-231 and fibroblast, EMEM for MCF7and CaCo-2, McCoy’s for HCT116 and RPMI for PC3 and NCI-H727. All culture media were supplemented with 10% of FBS, 1% of penicillin-streptomycin and 2 mM glutamine.
(§3) Chemicals were solubilized in DMSO at a concentration of 10 mM (stock solution) and diluted in culture medium to the desired final concentrations.
[…] Cells were plated in 96 wells plates (4000 cells/well). Twenty-four hours after seeding, cells were exposed to chemicals. After 48 h of treatment, cells were washed in PBS and fixed in cooled 90% ethanol/5% acetic acid for 20 min and the nuclei were stained with Hoechst 33342 (B2261 Sigma). Image acquisition and analysis were performed using a CellomicsArrayScan VTI/HCS Reader (ThermoScientific, Waltham, MA, USA). The survival percentages were calculated as the percentage of cell number after compound treatment over cell number after DMSO treatment.

[14] = cytotoxic assay, nuclei count (Hoechst, HCS); type: cell-based; settings: human, MCF7 cells (breast carcinoma); 48 h treatment; read-out: Cytotoxic studies IC50 MCF7
Procedure: as §1, §2, §3
(§4) The cytotoxic assay of chemical was performed at 25 µM. Cells were plated in 96 wells plates (4000 cells/well). Twenty-four hours after seeding, cells were exposed to chemicals. After 48 h of treatment, cells were washed in PBS and fixed in cooled 90% ethanol/5% acetic acid for 20 min and the nuclei were stained with Hoechst 33342 (B2261 Sigma). Image acquisition and analysis were performed using a CellomicsArrayScan VTI/HCS Reader (ThermoScientific, Waltham, MA, USA). The survival percentages were calculated as the percentage of cell number after compound treatment over cell number after DMSO treatment.

[15] = cytotoxic assay, nuclei count (Hoechst, HCS); type: cell-based, human; settings: human, human skin fibroblasts (non-cancerous reference cells); 48 h treatment; some cells add low/moderate/high amplitude; read-out: Cytotoxic studies IC50 Fibroblasts
Procedure: as §1, §2, §3, §4

[16] = HCT116 cells (colorectal adenocarcinoma), read-out: Cytotoxic studies IC50 HCT116
[17] = MDA-MB-468 cells (breast carcinoma), read-out: Cytotoxic studies IC50 MDA-MB-468

T3 sequence (Q00535 whole entry): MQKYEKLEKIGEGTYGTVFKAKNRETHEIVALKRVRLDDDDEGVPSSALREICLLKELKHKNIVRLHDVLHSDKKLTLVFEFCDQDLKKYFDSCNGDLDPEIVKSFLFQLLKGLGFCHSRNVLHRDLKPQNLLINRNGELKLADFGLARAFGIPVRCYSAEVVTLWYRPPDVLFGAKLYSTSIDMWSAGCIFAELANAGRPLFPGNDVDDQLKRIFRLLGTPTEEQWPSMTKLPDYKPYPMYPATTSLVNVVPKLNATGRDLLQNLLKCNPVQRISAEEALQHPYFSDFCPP
T3 sequence (Q15078 99-307 partner limits assumed): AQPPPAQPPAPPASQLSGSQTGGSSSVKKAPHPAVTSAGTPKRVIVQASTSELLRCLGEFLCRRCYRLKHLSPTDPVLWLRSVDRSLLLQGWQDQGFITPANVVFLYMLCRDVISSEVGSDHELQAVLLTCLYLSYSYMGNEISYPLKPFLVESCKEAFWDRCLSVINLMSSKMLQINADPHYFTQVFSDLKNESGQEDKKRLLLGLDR
T8 sequence (P49841 whole entry): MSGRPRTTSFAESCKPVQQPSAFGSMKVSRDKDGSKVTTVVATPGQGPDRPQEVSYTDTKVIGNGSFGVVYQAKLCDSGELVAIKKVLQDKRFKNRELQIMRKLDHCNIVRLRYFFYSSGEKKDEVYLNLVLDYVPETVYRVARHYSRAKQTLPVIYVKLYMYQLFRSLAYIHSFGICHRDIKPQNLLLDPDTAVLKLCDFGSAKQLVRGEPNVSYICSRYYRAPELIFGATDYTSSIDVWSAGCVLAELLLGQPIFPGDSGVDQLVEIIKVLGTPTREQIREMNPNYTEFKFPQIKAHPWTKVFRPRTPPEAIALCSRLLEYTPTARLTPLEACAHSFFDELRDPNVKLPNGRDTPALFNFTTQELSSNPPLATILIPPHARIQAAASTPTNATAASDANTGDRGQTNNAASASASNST
T9 sequence (P49674 whole entry): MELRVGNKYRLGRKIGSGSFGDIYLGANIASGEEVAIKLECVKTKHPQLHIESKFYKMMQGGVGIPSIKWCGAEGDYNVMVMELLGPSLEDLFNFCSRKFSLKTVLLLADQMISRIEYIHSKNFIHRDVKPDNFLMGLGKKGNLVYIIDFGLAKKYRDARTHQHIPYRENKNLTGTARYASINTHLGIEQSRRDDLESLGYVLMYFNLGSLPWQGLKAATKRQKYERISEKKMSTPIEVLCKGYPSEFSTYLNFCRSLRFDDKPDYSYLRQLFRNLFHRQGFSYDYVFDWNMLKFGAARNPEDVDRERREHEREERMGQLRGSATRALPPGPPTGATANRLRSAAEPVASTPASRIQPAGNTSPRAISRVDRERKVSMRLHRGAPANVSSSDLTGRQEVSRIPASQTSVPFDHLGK
T5 sequence (P11309 whole entry): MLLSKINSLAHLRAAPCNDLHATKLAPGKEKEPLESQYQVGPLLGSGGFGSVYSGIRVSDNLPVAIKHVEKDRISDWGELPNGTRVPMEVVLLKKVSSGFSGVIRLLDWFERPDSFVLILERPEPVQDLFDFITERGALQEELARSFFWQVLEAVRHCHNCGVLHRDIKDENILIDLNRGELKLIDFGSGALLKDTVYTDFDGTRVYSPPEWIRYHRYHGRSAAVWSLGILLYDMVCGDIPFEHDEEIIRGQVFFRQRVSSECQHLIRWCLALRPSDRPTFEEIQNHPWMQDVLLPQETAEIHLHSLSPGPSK
T4 sequence (P50750 whole entry): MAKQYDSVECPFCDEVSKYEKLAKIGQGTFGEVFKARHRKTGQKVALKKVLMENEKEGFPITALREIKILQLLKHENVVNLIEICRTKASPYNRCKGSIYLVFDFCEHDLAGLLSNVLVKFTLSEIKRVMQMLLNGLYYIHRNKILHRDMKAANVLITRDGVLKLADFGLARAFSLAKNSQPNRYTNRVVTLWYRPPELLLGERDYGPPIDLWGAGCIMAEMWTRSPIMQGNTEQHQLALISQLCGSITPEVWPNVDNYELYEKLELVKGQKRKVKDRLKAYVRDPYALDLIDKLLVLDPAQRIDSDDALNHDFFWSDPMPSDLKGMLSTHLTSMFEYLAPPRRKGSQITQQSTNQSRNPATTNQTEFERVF
T4 sequence (O60563 whole entry partner): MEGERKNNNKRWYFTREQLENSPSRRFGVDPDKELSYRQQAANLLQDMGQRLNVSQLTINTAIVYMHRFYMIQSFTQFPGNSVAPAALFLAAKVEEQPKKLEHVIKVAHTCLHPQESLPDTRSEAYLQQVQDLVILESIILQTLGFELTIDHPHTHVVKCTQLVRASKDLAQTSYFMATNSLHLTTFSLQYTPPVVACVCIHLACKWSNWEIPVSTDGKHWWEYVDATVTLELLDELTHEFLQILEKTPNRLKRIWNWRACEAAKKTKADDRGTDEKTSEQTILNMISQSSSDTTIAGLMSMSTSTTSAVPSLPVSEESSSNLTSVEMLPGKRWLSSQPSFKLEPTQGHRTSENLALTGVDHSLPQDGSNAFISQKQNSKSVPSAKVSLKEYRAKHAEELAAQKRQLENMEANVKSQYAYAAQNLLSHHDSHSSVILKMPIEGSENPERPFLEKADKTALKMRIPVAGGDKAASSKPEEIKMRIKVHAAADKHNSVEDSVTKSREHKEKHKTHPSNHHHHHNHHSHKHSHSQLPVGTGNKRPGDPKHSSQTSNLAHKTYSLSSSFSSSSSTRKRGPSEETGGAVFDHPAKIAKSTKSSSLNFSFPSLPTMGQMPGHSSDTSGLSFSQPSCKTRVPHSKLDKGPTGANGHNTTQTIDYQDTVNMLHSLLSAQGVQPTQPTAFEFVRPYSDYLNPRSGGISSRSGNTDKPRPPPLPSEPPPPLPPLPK
T2 sequence (P22518 whole entry): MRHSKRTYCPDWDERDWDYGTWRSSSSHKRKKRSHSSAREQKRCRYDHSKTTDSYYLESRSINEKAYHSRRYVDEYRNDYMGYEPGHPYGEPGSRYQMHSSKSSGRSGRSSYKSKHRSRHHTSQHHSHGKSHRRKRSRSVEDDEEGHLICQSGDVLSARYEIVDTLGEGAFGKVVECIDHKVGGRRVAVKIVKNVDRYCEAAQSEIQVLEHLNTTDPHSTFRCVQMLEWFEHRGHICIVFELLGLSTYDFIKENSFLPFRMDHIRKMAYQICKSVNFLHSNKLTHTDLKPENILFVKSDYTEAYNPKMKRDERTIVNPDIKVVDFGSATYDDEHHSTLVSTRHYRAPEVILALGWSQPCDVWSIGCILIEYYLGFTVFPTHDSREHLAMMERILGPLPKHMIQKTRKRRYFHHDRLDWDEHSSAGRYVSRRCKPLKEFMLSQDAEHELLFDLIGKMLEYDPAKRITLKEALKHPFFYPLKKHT

Structure (SMILES)	remaining activity at 1 µM [1] [%]	remaining activity at 10 µM [1] [%]	remaining activity at 1 µM [2] [%]	remaining activity at 10 µM [2] [%]	remaining activity at 1 µM [3] [%]	remaining activity at 10 µM [3] [%]	remaining activity at 1 µM [4] [%]	remaining activity at 10 µM [4] [%]	remaining activity at 1 µM [5] [%]	remaining activity at 10 µM [5] [%]	remaining activity at 1 µM [6] [%]	remaining activity at 10 µM [6] [%]	remaining activity at 1 µM [7] [%]	remaining activity at 10 µM [7] [%]	remaining activity at 1 µM [8] [%]	remaining activity at 10 µM [8] [%]	remaining activity at 1 µM [9] [%]	remaining activity at 10 µM [9] [%]	IC50 at 48 h [10] [µM]	IC50 at 48 h [11] [µM]	further results
CC(C)(C)OC(=O)N[C@H]1CC[C@@H](n2cc(COc3cccc4cnc(Nc5cccc(Cl)c5)nc34)nn2)CC1 [15a, tert-Butyl ((cis)-4-(4-(((2-((3-chlorophenyl)amino)quinazolin-8-yl)oxy)methyl)-1H-1,2,3-triazol-1-yl)cyclohexyl)carbamate]	95	63	98	60	≥ 100	96	64	55	86	74	≥ 100	97	92	74	≥ 100	86	≥ 100	97	7	> 25	IC50 at 48 h [12]: 3 µM; IC50 at 48 h [13, 16]: 7 µM; IC50 at 48 h [13, 17]: 18 µM; IC50 at 48 h [14]: 23 µM; IC50 at 48 h [15]: > 25 µM
CC(C)(C)OC(=O)N[C@H]1CC[C@@H](n2cc(COc3cccc4cnc(Nc5cc(Cl)cc(Cl)c5)nc34)nn2)CC1 [15b, tert-Butyl ((cis)-4-(4-(((2-((3,5-dichlorophenyl)amino)quinazolin-8-yl)oxy)methyl)-1H-1,2,3-triazol-1-yl)cyclohexyl)carbamate]	≥ 100	74	96	73	≥ 100	68	92	61	75	73	95	≥ 100	89	58	93	57	≥ 100	81	20	21	IC50 at 48 h [12]: 8 µM; IC50 at 48 h [13, 16]: > 25 µM; IC50 at 48 h [13, 17]: > 25 µM; IC50 at 48 h [14]: > 25 µM; IC50 at 48 h [15]: > 25 µM
N[C@H]1CC[C@@H](n2cc(COc3cccc4cnc(Nc5cccc(Cl)c5)nc34)nn2)CC1 [16a, 8-((1-((cis)-4-Aminocyclohexyl)-1H-1,2,3-triazol-4-yl)methoxy)-N-(3-chlorophenyl)quinazolin-2-amine hydrochloride]	84	36	17	8	75	36	68	12	54	14	82	33	72	31	32	49	87	21	8	9	IC50 ([1]; 10 µM ATP, duplicate): 2.76 µM; IC50 ([2]; mouse CLK1 orthologue, read-out: IC50 MmCLK1): 0.22 µM; IC50 at 48 h [12]: 9 µM; IC50 at 48 h [13, 16]: 10 µM; IC50 at 48 h [13, 17]: 9 µM; IC50 at 48 h [14]: 8 µM; IC50 at 48 h [15]: 9 µM
